Experimental findings from ChEMBL document CHEMBL4350952, “Evolution of PI3Kγ and δ Inhibitors for Inflammatory and Autoimmune Diseases” (J Med Chem, 2019) are described below.

The species named for assay [1] is Rattus norvegicus. Nature of the assay: Decrease in number of neutrophils in rat BAL at 100 ug, it at 2 hrs post dose relative to control. Type of assay: functional. More on the design: scale not given: the % may be the effect or the level left.
The species entered for assay [2] is Mus musculus. Put plainly: Decrease in neutrophil influx reduction in mouse at 4 ug, it relative to control. On the set-up: scale not given: the % may be the effect or the level left. Type of assay: functional.
The species named for assay [3] is Mus musculus. Nature of the assay: Decrease in number of neutrophils in mouse BAL at 4 ug, it at 2 hrs post dose relative to control. Type of assay: functional. More on the design: scale not given: the % may be the effect or the level left.
Assay [4] is filed under the species Rattus norvegicus. Put plainly: Decrease in number of neutrophils in rat BAL at 20 ug, it at 2 hrs post dose relative to control. More on the design: scale not given: the % may be the effect or the level left. Type of assay: functional.
The species named for assay [5] is Mus musculus. Nature of the assay: Decrease in eosinophil influx reduction in mouse at 1 ug, it relative to control. Type of assay: functional. More on the design: scale not given: the % may be the effect or the level left.
The species entered for assay [6] is Mus musculus. Put plainly: Decrease in number of neutrophils in mouse BAL at 1 ug, it at 2 hrs post dose relative to control. Type of assay: functional. On the set-up: scale not given: the % may be the effect or the level left.
For assay [7], the system named is U-937. Put plainly: cells. Type of assay: functional, cell-based. The settings on record: Homo sapiens.
Description: Cytotoxicity against in human U937 cells
Assay [8] is filed under the species Rattus norvegicus. Nature of the assay: Decrease in number of neutrophils in rat BAL at 20 ug, it at 8 hrs post dose relative to control. Type of assay: functional. On the set-up: scale not given: the % may be the effect or the level left.
The species entered for assay [9] is Homo sapiens. Nature of the assay: Selectivity ratio of IC50 for PI3Kbeta in human U937 cells to IC50 for GST-tagged PI3Kdelta in human U937 cells. Type of assay: cell-based.
For assay [10], the species on record is Mus musculus. Put plainly: Decrease in neutrophil influx reduction in mouse at 20 ug, it relative to control. Type of assay: functional. On the set-up: scale not given: the % may be the effect or the level left.
The species entered for assay [11] is Mus musculus. Put plainly: Decrease in number of neutrophils in mouse BAL at 4 ug, it at 8 hrs post dose relative to control. Type of assay: functional. More on the design: scale not given: the % may be the effect or the level left.
The species entered for assay [12] is Mus musculus. Nature of the assay: Decrease in number of neutrophils in mouse BAL at 4 ug, it at 12 hrs post dose relative to control. More on the design: scale not given: the % may be the effect or the level left. Type of assay: functional.
For assay [13], the species on record is Mus musculus. Put plainly: Decrease in eosinophil influx reduction in mouse at 20 ug, it relative to control. More on the design: scale not given: the % may be the effect or the level left. Type of assay: functional.
For assay [14], the species on record is Rattus norvegicus. Put plainly: Decrease in number of neutrophils in rat BAL at 5 ug, it at 2 hrs post dose relative to control. Type of assay: functional. On the set-up: scale not given: the % may be the effect or the level left.
The species entered for assay [15] is Mus musculus. Nature of the assay: Decrease in neutrophil influx reduction in mouse at 1 ug, it relative to control. Type of assay: functional. More on the design: scale not given: the % may be the effect or the level left.
For assay [16], the species on record is Mus musculus. Nature of the assay: Decrease in number of neutrophils in mouse BAL at 20 ug, it at 2 hrs post dose relative to control. Type of assay: functional. On the set-up: scale not given: the % may be the effect or the level left.
The species named for assay [17] is Rattus norvegicus. Nature of the assay: Decrease in number of neutrophils in rat BAL at 20 ug, it at 12 hrs post dose relative to control. Type of assay: functional. On the set-up: scale not given: the % may be the effect or the level left.
Assay [18] is filed under the species Mus musculus. Nature of the assay: Decrease in eosinophil influx reduction in mouse at 4 ug, it relative to control. Type of assay: functional. On the set-up: scale not given: the % may be the effect or the level left.

Take `COCCOCCOCC#Cc1cccc2nc(Cn3nc(-c4cc(O)cc(F)c4)c4c(N)ncnc43)n(Cc3ccccc3C(F)(F)F)c(=O)c12`: the Activity was 73% in [1]; 70% in assay [2]; 53% in assay [3]; 58% in assay [4]; 20% in assay [5]; 19% in assay [6]. The Activity in assay [8] is given as 33%; in [10] it was 80%; in assay [11], 45%; in assay [12], 23%; in assay [13] it was 91%; in assay [14] it was 9%. In addition, the Activity came out at 18% in [15], 68% in [16], 10% in assay [17] and 85% in [18]. In addition, 7.4 nM corresponded to half-maximal inhibition in [7] (IC50). For the same compound, in [9], the Ratio IC50 came to 2000.
